Assay [1] has as its target T1, IGF-1R-cytoplasmic kinase domain (IGF-1R-CKD; amino acids 959-1367 of IGF-1R) (Homo sapiens, UniProt P08069).
T1 construct: amino acids 959-1367 of IGF-1R
Briefly: IGF-1R substrate assay (KS2 phosphorylation). The class given is biochemical. The conditions noted are these: compounds 50 μM; 50 μM ATP; KS2-biotin substrate. On the procedure: Nunc Maxisorp plates were coated with 100 μL 10 μg/mL-streptavidin at […] The plates were washed in 20 mM Tris pH7.6, 150 mM NaCl, 0.05% Tween 20, 0.8 mM Na3VO4, and 0.04% Biocide between all steps of the assay. The plates were blocked in 200 μL 50 mM Hepes/150 mM NaCl/0.1% Triton-X 100 overnight at 4° C. or for 2 hr at 25-37° C.
Aliquots of the IGF-1R-cytoplasmic kinase domain (IGF-1R-CKD; amino acids 959-1367 of IGF-1R) were purified and stored at −80° C. until use. KS2 (GPWLEEEEEAYGWMDF; SEQ ID NO:1), gastrin (1-17) that is a substrate for many tyrosine kinases including the insulin receptor, was synthesized as a biotin conjugate (KS2-biotin) (Baldwin et al., Nature, 301:435-37 (1983)). The assay mixture consisted of 0.2 μg/mL IGF-1R-CKD (concentration adjusted for optimal response), 300-900 nM KS2-biotin (depending on optimal response), 2 mM […], 5 mM MgCl2 (4-10 mM […] can be substituted), compounds to be tested (50 μM) or their vehicle, and 50 μM ATP. The start of phosphorylation begins with the addition of ATP. Incubation was continued for 10-30 minutes, at which time, the reaction was stopped through the quenching the metals with 20 mM EDTA (final concentration).
The reaction was diluted 1:10 in buffer A (2 mM HEPES pH 7.6, 0.05% Triton X-100, 0.05% bovine serum albumin (BSA)) and 100 μL was captured onto washed, coated and blocked, streptavidin Nunc Maxisorp plate, overnight at 4° C. or 2 hr at 37° C. Anti-phosphotyrosine antibody (12.5 ng/well) conjugated to horseradish peroxidase (RC20:HRPO by Transduction Laboratories ) was diluted into 0.5X Buffer B (25 mM Hepes pH7.6, 75 mM NaCl, 0.025% Tween 20, 2 mM Na3VO4+1% BSA) and incubated for 1.5 to 2 hr at 25° C. The phosphorylated substrate was measured by developing the plate with 100 μL 3′, 3′, 5,5′ tetramethylbenzidine (TMB), and quantified using a plate reader.

The test system of a further assay is MCF-7 or MCF-10 cells. Briefly: Cell proliferation assay (CellTiter 96, MTS). In kind it is cell-based. The conditions noted are these: 1 nM IGF-1, 48 h, FIG. 2. On the procedure:
5000 cells (MCF-7 or MCF-10) were plated into 96 well plates and grown for 24 h as in Example 4, above. Cells were washed in serum free DMEM, then 100 μl media and 1 nM IGF-1 were added to wells in the presence of or absence of compound 5 (see Example 2) and hormone. After 48 h, viability was determined by CellTiter 96™ (Promega). This kit is a chromogenic bioassay procedure for the measurement of cell proliferation. Briefly, 20 μl (3-[4,5,dimethylthiazol-2-yl]-5-[3-carboxymethoxyphenyl]-2-[4-sulfophenyl]-2H-tetrazolium, inner salt (MTS) was added to each well and incubation was continued for 3-4 h. Viable cells reduced the MTS to formazan, which was then measured at 492 nm using an ELISA plate reader. Cell proliferation was calculated based on the increase in the number of viable cells.

The next assay relates to MCF-10 cells. Briefly: Cell growth inhibition study by protein assay, MCF-10. The conditions noted are these: 1 nM IGF-I, FIG. 1a. The class given is cell-based. On the procedure:
MFC-10 cells were plated as above in DMEM/Ham's F12 medium (DMEM/F12) supplemented with 5% horse serum, 8 ng/ml epidermal growth factor (EGF), 0.5 μg/ml hydrocortisone, 0.1 μg/mL cholera toxin. After 24 hr, cells were washed twice in serum free DMEM/F12, then 0.5 ml DMEM/12 with 0.5% horse serum added with or without test compound, and in the […] of 1 nM IGF-I.

Another assay relates to MCF-7 cells. Briefly: Cell growth inhibition study by protein assay, MCF-7. The class given is cell-based. As to conditions: 1 nM IGF-1, 48 h, FIG. 1b. On the procedure:
100,000 cells (MCF-7) were plated into 24 well dishes, and grown in complete Dulbecco's modified Eagle's medium (DMEM) supplemented with 10% fetal calf serum (FCS) for 24 h. Cells were washed twice in serum-free DMEM, then 0.5 ml DMEM supplemented with 0^5% FCS […] was added with or without a heteroaryl-aryl compound, compound 5, and in the presence or absence of 1 nM hormone (IGF-1 or insulin, respectively). After 48 h at 37° C., cells were washed twice with phosphate buffered saline (PBS) then solubilized in 0.03% sodium dodecyl sulfate (SDS). Protein was determined using the BCA Protein Assay reagent from Pierce Chemical with BSA serving as a standard.

For orientation: inhibition means the relative decrease from the control value, in per cent. Read a high inhibition as a strong effect.

T1 sequence (P08069 959-1367): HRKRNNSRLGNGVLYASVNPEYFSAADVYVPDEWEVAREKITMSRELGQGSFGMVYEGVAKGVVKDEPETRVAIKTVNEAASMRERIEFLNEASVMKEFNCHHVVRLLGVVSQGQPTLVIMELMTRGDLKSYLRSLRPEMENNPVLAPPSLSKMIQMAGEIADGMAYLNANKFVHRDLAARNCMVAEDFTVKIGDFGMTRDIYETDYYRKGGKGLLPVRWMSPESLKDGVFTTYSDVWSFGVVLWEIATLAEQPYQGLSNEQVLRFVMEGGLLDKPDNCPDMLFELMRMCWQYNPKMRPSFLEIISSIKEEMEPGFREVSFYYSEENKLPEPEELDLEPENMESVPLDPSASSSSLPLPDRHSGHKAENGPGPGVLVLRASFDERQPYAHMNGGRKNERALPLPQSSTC

The compound `COc1c(Cl)cccc1NC(=O)Nc1cc(C)nc2ccccc12` [Compound 5, N-(2-methoxy-3-chlorophenyl)-N′-(2-methyl-4-quinolinyl) urea] had an inhibition at 50 µM in assay [1] of 21%. Moreover, in the assay on MCF-7 or MCF-10 cells, the “IGF-1R stimulated cell proliferation” value is listed as “decrease in IGF-1R stimulated cell proliferation”. Besides, the “IGF-1 stimulated cell growth (protein assay)” value in the assay on MCF-10 cells and in the assay on MCF-7 cells was “inhibit IGF-1 stimulated cell growth” each time.

For `O=C(Nc1cc(Cl)cc(Cl)c1)Nc1nccs1` [Compound 14, N-(3,5-dichlorophenyl)-N′-(1,3-thiazol-2-yl) urea], in assay [1], the inhibition at 50 µM was found to be 17%.

`Cc1ccc(NC(=O)Nc2cnc3ccccc3c2)cc1Cl` [Compound 8, N-(3-chloro-4-methylphenyl)-N′-(3-quinolinyl) urea] displayed an inhibition at 50 µM in assay [1] of 65%.

In assay [1], `COc1c(Cl)cccc1NC(=O)Nc1nccs1` [Compound 11, N-(2-methoxy-3-chlorophenyl)-N′-(1,3-thiazol-2-yl) urea] registered an inhibition at 50 µM of 21%.

In turn, `O=C(Nc1cccc(Cl)c1)Nc1cnc2ccccc2c1` [Compound 10, N-(3-chlorophenyl)-N′-(3-quinolinyl) urea] gave an inhibition at 50 µM in assay [1] of 26%.

The compound `COc1ccc(Cl)cc1NC(=O)Nc1cc(C)nc2ccccc12` [Compound 7, N-(2-methoxy-5-chlorophenyl)-N′-(2-methyl-4-quinolinyl) urea] returned an inhibition at 50 µM in assay [1] of 23%.

`COc1ccccc1NC(=O)Nc1nccs1` [Compound 13, N-(2-methoxyphenyl)-N′-(1,3-thiazol-2-yl) urea] came in with an inhibition at 50 µM in assay [1] of 20%.

Take `CCc1ccc(NC(=O)Nc2cccc3cccnc23)cc1` [Compound 9, N-(4-ethylphenyl)-N′-(8-quinolinyl) urea]: in assay [1], the inhibition at 50 µM worked out at 33%.

As to `Cc1ccc(NC(=O)Nc2nccs2)cc1Cl` [Compound 12, N-(3-chloro-4-methylphenyl)-N′-(1,3-thiazol-2-yl) urea], the inhibition at 50 µM in assay [1] was 21%.
